Drawing on DBAASP, this text covers MIC for 13 compounds.

Converted amounts (≈) assume the structure as drawn.

Among the test systems are Candida albicans; Escherichia coli UB1005; Shigella dysenteriae; Streptococcus mutans; Escherichia coli BW25113.
Common to all, as to test: ≥ marks a high value that may be exact or a test limit, other limits are often not marked, values filed in µg/mL are converted to µM
For assay [1], the system named is Pseudomonas aeruginosa H103.
Assay [2] concerns Staphylococcus epidermidis.
In assay [3] the test system is Enterococcus faecalis ATCC 29212.
Assay [4] has as its system Salmonella enterica serovar Typhimurium.
Assay [5] concerns Staphylococcus aureus ATCC 25923.
The test system of assay [6] is Staphylococcus aureus ATCC 2592.
Assay [7] relates to Staphylococcus aureus NCTC 8325.
Assay [8] relates to Candida albicans ATCC 2002.
Assay [9] deals with Candida albicans ATCC 90028.
The test system of assay [10] is Micrococcus luteus ATCC 9341.

A word on the MIC: it is the least concentration at which growth counts as inhibited. Read a high MIC as a need for much substance. In the case of `CC[C@H](C)[C@H](NC(=O)[C@H](Cc1ccccc1)NC(=O)[C@@H](N)Cc1ccccc1)C(=O)N[C@@H](Cc1ccc(O)cc1)C(=O)N[C@H](C(=O)N[C@@H](Cc1c[nH]c2ccccc12)C(=O)N[C@@H](CCCN=C(N)N)C(=O)N[C@@H](CCCN=C(N)N)C(=O)N[C@@H](CCCN=C(N)N)C(=O)O)C(C)C` [FFIYVWRRR], the MIC in assay [1] was determined as 15.3 µM (≈ 20.5 µg/mL); against Candida albicans, 7.6 µM (≈ 10.2 µg/mL); in [2], 1 µM (≈ 1.34 µg/mL); against Escherichia coli UB1005, 3.8 µM (≈ 5.1 µg/mL); in assay [3], 3.8 µM (≈ 5.1 µg/mL); in assay [4], 7.6 µM (≈ 10.2 µg/mL). In addition, the MIC in assay [5] turned out to be 1.9 µM (≈ 2.55 µg/mL).

For the compound `CC[C@H](C)[C@H](NC(=O)CNC(=O)[C@H](CO)NC(=O)[C@H](CC(C)C)NC(=O)[C@H](CC(C)C)NC(=O)CN)C(=O)N[C@@H](CC(C)C)C(=O)NCC(=O)N[C@@H](C)C(=O)NCC(=O)N[C@@H](CCCCN)C(=O)N[C@@H](CC(N)=O)C(=O)N[C@H](C(=O)N[C@H](C(=O)N[C@H]1CSSC[C@@H](C(=O)O)NC(=O)[C@H](CC(C)C)NC(=O)CNC(=O)[C@H](CO)NC(=O)[C@H](CC(C)C)NC(=O)CNC1=O)C(C)C)[C@@H](C)CC` [GLLSGILGAGKNIVCGLSGLC], the MIC with Shigella dysenteriae was 0.643 µM (≈ 1.25 µg/mL); in assay [6] it was 1.29 µM (≈ 2.5 µg/mL); in assay [7] it was at least 100 µM; in assay [8], 3.86 µM (≈ 7.49 µg/mL); in assay [9], at least 100 µM.

`CC[C@H](C)[C@H](N)C(=O)N[C@@H](CC(C)C)C(=O)N1CCC[C@H]1C(=O)N[C@@H](CCC(=O)O)C(=O)N[C@@H](CCCCN)C(=O)N[C@@H](CCC(=O)O)C(=O)N1CCC[C@H]1C(=O)N[C@@H](CCC(=O)O)C(=O)N[C@@H](CCC(=O)O)C(=O)N1CCC[C@H]1C(=O)N[C@@H](CCC(=O)O)C(=O)N[C@@H](CCCN=C(N)N)C(=O)N[C@@H](CCCN=C(N)N)C(N)=O` [ILPEKEPEEPERR]: the MIC in assay [10] is at least 100 µM.

In [10], `CC[C@H](C)[C@H](N)C(=O)N[C@@H](CC(C)C)C(=O)N1CCC[C@H]1C(=O)N[C@@H](CCCCN)C(=O)N[C@@H](CCCCN)C(=O)N[C@@H](CCCCN)C(=O)N1CCC[C@H]1C(=O)N[C@@H](CCCCN)C(=O)N[C@@H](CCCCN)C(=O)N1CCC[C@H]1C(=O)N[C@@H](CCCCN)C(=O)N[C@@H](CCCN=C(N)N)C(=O)N[C@@H](CCCN=C(N)N)C(N)=O` [ILPKKKPKKPKRR] showed a minimum inhibitory concentration (MIC) of at least 100 µM.

Turning to `CC[C@H](C)[C@H](NC(=O)[C@H](CCC(=O)O)NC(=O)[C@H](CCCCN)NC(=O)[C@H](CC(C)C)NC(=O)[C@H](CCC(N)=O)NC(=O)[C@H](CCC(=O)O)NC(=O)[C@@H](NC(=O)[C@H](CC(C)C)NC(=O)[C@@H](N)CCCCN)C(C)C)C(=O)N[C@@H](Cc1ccccc1)C(=O)N[C@@H](CCCN=C(N)N)C(=O)O` [KLVEQLKEIFR], the MIC in the assay on Streptococcus mutans is at least 178 µM.

For `CC[C@H](C)[C@H](NC(=O)[C@H](Cc1c[nH]c2ccccc12)NC(=O)[C@H](Cc1c[nH]c2ccccc12)NC(=O)[C@H](CCCCN)NC(=O)[C@H](Cc1c[nH]c2ccccc12)NC(=O)[C@H](CCCN=C(N)N)NC(=O)[C@H](CCCN=C(N)N)NC(=O)[C@H](CCCCN)NC(=O)[C@@H](N)CC(C)C)C(=O)O` [LKRRWKWWI], the minimum inhibitory concentration (MIC) is 19.1 µM (≈ 26.2 µg/mL) in [1]; 19.1 µM (≈ 26.2 µg/mL) with Candida albicans; 1.2 µM (≈ 1.65 µg/mL) in assay [2]; 2.4 µM (≈ 3.29 µg/mL) in the assay on Escherichia coli UB1005; 9.6 µM (≈ 13.2 µg/mL) in assay [3]; 9.6 µM (≈ 13.2 µg/mL) in [4]. The compound also displayed an MIC in assay [5] of 2.4 µM (≈ 3.29 µg/mL).

In turn, `CC[C@H](C)[C@H](NC(=O)[C@@H]1CCCN1C(=O)[C@H](CCCN=C(N)N)NC(=O)[C@H](CCCN=C(N)N)NC(=O)[C@H](Cc1ccccc1)NC(=O)[C@@H](N)CCCN=C(N)N)C(=O)N[C@@H](CCCN=C(N)N)C(=O)N[C@@H](CCCN=C(N)N)C(=O)N[C@@H](CCCN=C(N)N)C(=O)N1CCC[C@H]1C(=O)N[C@H](C(=O)N[C@@H](CCCN=C(N)N)C(=O)N1CCC[C@H]1C(=O)N1CCC[C@H]1C(=O)N[C@@H](Cc1ccccc1)C(=O)N[C@@H](Cc1ccc(O)cc1)C(=O)N1CCC[C@H]1C(=O)O)[C@@H](C)CC` [RFRRPIRRRPIRPPFYP] displayed an MIC against Escherichia coli BW25113 of 8 µM (≈ 18.2 µg/mL).

In the case of `CC(C)C[C@H](NC(=O)[C@H](Cc1ccccc1)NC(=O)[C@H](CCCCN)NC(=O)[C@H](Cc1c[nH]c2ccccc12)NC(=O)[C@H](Cc1c[nH]c2ccccc12)NC(=O)[C@H](CCCN=C(N)N)NC(=O)[C@H](CCCCN)NC(=O)[C@H](CC(C)C)NC(=O)[C@@H](N)CCCN=C(N)N)C(=O)O` [RLKRWWKFL], the MIC in assay [1] was determined as 9.8 µM (≈ 13.1 µg/mL); with Candida albicans, 9.8 µM (≈ 13.1 µg/mL); in assay [2], 1.2 µM (≈ 1.6 µg/mL); in the assay on Escherichia coli UB1005, 1.2 µM (≈ 1.6 µg/mL); in assay [3] it was 9.8 µM (≈ 13.1 µg/mL); in assay [4] it was 4.9 µM (≈ 6.53 µg/mL). For the same compound, the MIC in assay [5] was 2.4 µM (≈ 3.2 µg/mL).

Turning to `NC(N)=NCCC[C@H](NC(=O)[C@H](Cc1c[nH]c2ccccc12)NC(=O)[C@H](Cc1c[nH]c2ccccc12)NC(=O)[C@H](Cc1c[nH]c2ccccc12)NC(=O)[C@H](CCCN=C(N)N)NC(=O)[C@H](CCCN=C(N)N)NC(=O)[C@@H](N)CCCN=C(N)N)C(=O)O` [RRRWWWR], the MIC in the assay on Streptococcus mutans was determined as 26.6 µM (≈ 32 µg/mL). That is a double-digit micromolar value.

Compound `NCCCC[C@H](NC(=O)[C@H](CCCN=C(N)N)NC(=O)[C@H](CCCN=C(N)N)NC(=O)[C@H](CCCCN)NC(=O)[C@H](Cc1c[nH]c2ccccc12)NC(=O)[C@H](CCCN=C(N)N)NC(=O)[C@@H](N)CCCN=C(N)N)C(=O)O` [RRWKRRK] yielded an MIC in the assay with Streptococcus mutans of at least 461 µM.

In the assay with Streptococcus mutans, `NC(=O)[C@H](Cc1cnc[nH]1)NC(=O)[C@H](Cc1ccccc1)NC(=O)[C@H](Cc1ccccc1)NC(=O)[C@H](Cc1cnc[nH]1)NC(=O)[C@H](Cc1cnc[nH]1)NC(=O)[C@H](Cc1ccccc1)NC(=O)[C@H](Cc1cnc[nH]1)NC(=O)[C@H](CCCN=C(N)N)NC(=O)[C@H](Cc1c[nH]c2ccccc12)NC(=O)[C@H](Cc1c[nH]c2ccccc12)NC(=O)[C@H](CCCN=C(N)N)NC(=O)[C@H](CCCN=C(N)N)NC(=O)[C@H](Cc1c[nH]c2ccccc12)NC(=O)[C@@H](N)CCCN=C(N)N` [RWRRWWRHFHHFFH] gave an MIC of 3.65 µM (≈ 8 µg/mL).

As for `CC[C@H](C)[C@H](NC(=O)[C@H](Cc1c[nH]c2ccccc12)NC(=O)[C@H](CCCCN)NC(=O)[C@H](CCCCN)NC(=O)[C@H](CC(C)C)NC(=O)[C@H](Cc1c[nH]c2ccccc12)NC(=O)[C@H](CCCCN)NC(=O)[C@@H](N)Cc1c[nH]c2ccccc12)C(=O)N[C@@H](CCCCN)C(=O)O` [WKWLKKWIK], the MIC in assay [1] amounted to 2.9 µM (≈ 3.82 µg/mL); in the assay on Candida albicans, 5.8 µM (≈ 7.63 µg/mL); in [2], 0.458 µM (≈ 0.603 µg/mL); in the assay with Escherichia coli UB1005, 5.8 µM (≈ 7.63 µg/mL); in assay [3] it was 11.5 µM (≈ 15.1 µg/mL); in assay [4] it was 11.5 µM (≈ 15.1 µg/mL). For the same compound, the MIC in [5] was found to be 0.7 µM (≈ 0.921 µg/mL).

In the case of `NCCCC[C@H](NC(=O)[C@@H](N)Cc1c[nH]c2ccccc12)C(=O)N[C@@H](Cc1c[nH]c2ccccc12)C(=O)N1CCC[C@H]1C(=O)N[C@@H](Cc1c[nH]c2ccccc12)C(=O)N[C@@H](Cc1c[nH]c2ccccc12)C(=O)N1CCC[C@H]1C(=O)N[C@@H](Cc1c[nH]c2ccccc12)C(=O)N[C@@H](CCCN=C(N)N)C(=O)N[C@@H](CCCN=C(N)N)C(N)=O` [WKWPWWPWRR], the MIC in assay [10] is 0.4 µM (≈ 0.633 µg/mL).
